Results reported in publication PMC4266903, “Hydroxylation index of omeprazole in relation to CYP2C19 polymorphism and sex in a healthy Iranian population” (DARU Journal of Pharmaceutical Sciences, 2014).
Where two headings read alike, the source gives them in different places.

Experiments:
[1] = Plasma concentration of omeprazole and hydroxyomeprazole by HPLC 3 hours after a single oral 20 mg omeprazole dose; type: in vivo, human; conditions: for Mean OH-OMP concentration ± SD / concentration at 3 h: plasma, 3 h after single oral 20 mg omeprazole; for concentration at 3 h: human, po, 20 mg, read-out: Mean OMP concentration ± SD
Description: (§1) The study protocol was approved by ethics committee of Tehran University of Medical Sciences (ethical no. 11208). Generally one hundred and eighty (60 women and 120 men) unrelated healthy Iranian volunteers with the mean age of between 20–55 years and average body weight of 45–89 kg took part in this study. All participants signed written informed consent of this project. The study was completed by contribution of faculties of pharmacy of Tehran, Yazd, Kermanshah and Kerman University of Medical Sciences. The participants were students or stuffs of pharmacy schools, with no history of any illness or medicine consumption. No smoking and consumption of medicine that would affect CYP2C19 activity was permitted for one week before and during the study.
(§2) After an overnight fast for at least 8 hours, volunteers took 20 mg omeprazole capsule (Abidi pharmaceuticals) with 250 milliliter tap water. Ten ml venous blood sample was collected from each subject 3 hours after administration of omeprazole and transferred into tubes containing 10 μl of 10% EDTA. Five ml of blood samples were centrifuged for 5 min at 4000 rpm and the plasma was separated and transferred to Eppendorf tube and stored at −80°C up to the day of analysis. The other 5 ml blood samples were stored directly in −80°C for genotyping analysis.
(§3) Omeprazole powder was purchased from TMAD (Iran). 5-hydroxyomeprazole was a kind donation by AstraZeneca (Sweden). The concentration of omeprazole and 5-hydroxyomeprazole was analyzed by HPLC method as described by Rezk et al. with a few modifications. Briefly 500 μl plasma was extracted by liquid-liquid extraction using 1500 μl ethyl acetate. After orbital mixing for 10 min and centrifuging at 4000 × g for 10 min, the upper organic layer was separated and transferred to glass tube and then evaporated to dryness under gentle stream of air. Finally the residue was dissolved in 250 μl mobile phase and 100 μl of this sample was injected to HPLC system. The mobile phase was a combination of dibasic sodium phosphate buffer (0.025 mol/lit, pH 6): acetonitrile: methanol (73: 18: 8 V/V/V). The HPLC apparatus consisted of a low pressure HPLC pump, UV detector (λ = 302 nm) all from Knauer (Berlin, Germany). The chromatographic separation was performed by using Chromolit™ Performance RP-18e 100 mm × 4.6 mm, 5 μm particle size. Flow rate was adjusted to 1 ml/min.

CYP2C19 [2] = conditions: cited from earlier work
CYP2C19 [3] = experiment: Omeprazole hydroxylation index (omeprazole/hydroxyomeprazole in plasma) as measure of CYP2C19 activity; type: in vivo, human; parameters: key to Median hydroxylation index / Median hydroxylation index (HI) / Mean HI ± SD: ratio: plasma omeprazole / 5-hydroxyomeprazole concentration at 3 h; conditions: for Mean HI ± SD: 3 h after single oral 20 mg omeprazole; for Median hydroxylation index: all genotypes
Description: as §1, §2, §3
(§4) The allele frequencies differences between population were estimated using two-tailed Fisher’s exact test. The 95% confidence intervals (CI) were calculated using Confidence Interval Analysis software. The relation of sex and genotype was assessed by two tailed Fisher’s exact test. The observed and expected frequencies were calculated by using Hardy-Weinberg equation. The two-tailed Fisher’s exact test was used to evaluate deviation of genotype frequencies in the studied population from Hardy-Weinberg equilibrium. The enzyme activity was compared by using omeprazole hydroxylation index. The hydroxylation index (HI) of omeprazole 3 hours after administration of omeprazole was calculated by dividing omeprazole to 5-hydroxyomeprazol plasma concentration. The mean HI in different genotypes were compared by Mann–Whitney two tailed test. The impact of sex on HI of omeprazole was also evaluated using Mann–Whitney two tailed test. The inter-individual variability in metabolism of omeprazole was represented by probit plot. For drawing probit plot, the log of HI was calculated, the antimode value was determined using Microsoft office excel 2010. The normality of HI distribution was analyzed by frequency distribution histogram and also by Kolmogorov- Smirnov test. All statistical analyses were performed by Sigma Plot version 12.0 and Graph Pad Prism version 5 softwares and P < 0.05 was considered as statistically significant difference.

CYP2C19 [4] = target: T1, CYP2C19 (Homo sapiens, UniProt P33261); experiment: as above; type: in vivo; parameters: key to Median hydroxylation index / Median hydroxylation index (HI) / Mean HI ± SD: ratio: plasma omeprazole / 5-hydroxyomeprazole concentration at 3 h
T1 construct: volunteers took 20 mg omeprazole capsule (Abidi pharmaceuticals) with 250 milliliter tap water; from tissue; host or cells: in vivo, endogenous enzyme of healthy human volunteers; metabolites measured in plasma
T1 sequence (P33261 whole entry): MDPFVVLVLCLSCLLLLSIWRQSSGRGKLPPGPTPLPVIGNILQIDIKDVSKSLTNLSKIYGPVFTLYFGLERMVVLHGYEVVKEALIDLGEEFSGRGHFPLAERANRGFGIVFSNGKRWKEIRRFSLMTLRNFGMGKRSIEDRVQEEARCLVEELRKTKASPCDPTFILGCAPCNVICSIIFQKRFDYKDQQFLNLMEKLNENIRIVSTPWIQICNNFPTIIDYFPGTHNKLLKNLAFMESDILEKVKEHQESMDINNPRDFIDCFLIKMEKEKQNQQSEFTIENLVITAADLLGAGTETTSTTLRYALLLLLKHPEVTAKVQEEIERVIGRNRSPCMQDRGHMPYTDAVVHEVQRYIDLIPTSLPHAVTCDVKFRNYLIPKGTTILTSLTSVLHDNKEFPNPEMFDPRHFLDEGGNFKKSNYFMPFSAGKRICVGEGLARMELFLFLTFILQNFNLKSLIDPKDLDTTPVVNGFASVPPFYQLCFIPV
Description: as §1, §2, §3, §4

[5] = parameters: method as in PMID 20804307; conditions: Iranian patients with erosive reflux esophagitis, cited from earlier work

COc1ccc2nc([S+]([O-])Cc3ncc(CO)c(OC)c3C)[nH]c2c1 (stereo not shown) [hydroxyomeprazole, 5-hydroxyomeprazole]
Hydroxyomeprazole plasma concentration, women compared with men ([1]; 60 women vs 120 men, P > 0.05): not statistically different
Mean OH-OMP concentration ± SD ([1]; genotype 1*1, Men (53)): 151.01 ± 26.38 ng/mL
Mean OH-OMP concentration ± SD ([1]; genotype 1*1, Total (75)): 163.74 ± 32.25 ng/mL
Mean OH-OMP concentration ± SD ([1]; genotype 1*1, Women (22)): 194.40 ± 60.84 ng/mL
Mean OH-OMP concentration ± SD ([1]; genotype 1*2, Men (20)): 165.53 ± 23.55 ng/mL
Mean OH-OMP concentration ± SD ([1]; genotype 1*2, Total (33)): 177.79 ± 38.39 ng/mL
Mean OH-OMP concentration ± SD ([1]; genotype 1*2, Women (13)): 194.66 ± 52.56 ng/mL
Mean OH-OMP concentration ± SD ([1]; genotype 1*17, Men (37)): 178.07 ± 44.57 ng/mL
Mean OH-OMP concentration ± SD ([1]; genotype 1*17, Total (52)): 177.05 ± 37.53 ng/mL
Mean OH-OMP concentration ± SD ([1]; genotype 1*17, Women (15)): 174.51 ± 28.01 ng/mL
Mean OH-OMP concentration ± SD ([1]; genotype 2*2, Men (1)): 103.58 ng/mL
Mean OH-OMP concentration ± SD ([1]; genotype 2*2, Total (4)): 104.67 ± 10.55 ng/mL
Mean OH-OMP concentration ± SD ([1]; genotype 2*2, Women (3)): 105.03 ± 13.80 ng/mL
Mean OH-OMP concentration ± SD ([1]; genotype 2*17, Men (2)): 169.82 ± 84.95 ng/mL
Mean OH-OMP concentration ± SD ([1]; genotype 2*17, Total (6)): 172.79 ± 63.58 ng/mL
Mean OH-OMP concentration ± SD ([1]; genotype 2*17, Women (4)): 178.72 ± 33.59 ng/mL
Mean OH-OMP concentration ± SD ([1]; genotype 17*17, Men (5)): 201.69 ± 32.08 ng/mL
Mean OH-OMP concentration ± SD ([1]; genotype 17*17, Total (10)): 203.31 ± 34.93 ng/mL
Mean OH-OMP concentration ± SD ([1]; genotype 17*17, Women (5)): 204.92 ± 41.35 ng/mL

COc1ccc2[nH]c([S+]([O-])Cc3ncc(C)c(OC)c3C)nc2c1 (stereo not shown) [omeprazole]
Omeprazole plasma concentration, women compared with men ([1]; 60 women vs 120 men, P > 0.05): not statistically different
Mean omeprazole plasma concentration, fold higher in CYP2C19*2*2 than CYP2C19*1*1 ([1]; *2*2 vs *1*1, P < 0.001): 11 fold
Mean omeprazole plasma concentration, fold higher in CYP2C19*2*2 than CYP2C19*17*17 ([1]; *2*2 vs *17*17, P < 0.001): 19.0 fold
concentration at 3 h ([1]; both sexes, genotype 1*1, Total (75)): 125 ± 27.2 ng/mL
concentration at 3 h ([1]; both sexes, genotype 1*2, Total (33)): 319 ± 150 ng/mL
concentration at 3 h ([1]; both sexes, genotype 1*17, Total (52)): 118 ± 10.2 ng/mL
concentration at 3 h ([1]; both sexes, genotype 2*2, Total (4)): 1390 ± 123 ng/mL
concentration at 3 h ([1]; both sexes, genotype 2*17, Total (6)): 289 ± 97.5 ng/mL
concentration at 3 h ([1]; both sexes, genotype 17*17, Total (10)): 71 ± 10.3 ng/mL
concentration at 3 h ([1]; female, genotype 1*1, Women (22)): 128 ± 39.9 ng/mL
concentration at 3 h ([1]; female, genotype 1*2, Women (13)): 365 ± 265 ng/mL
concentration at 3 h ([1]; female, genotype 1*17, Women (15)): 120 ± 20.1 ng/mL
concentration at 3 h ([1]; female, genotype 2*2, Women (3)): 1360 ± 133 ng/mL
concentration at 3 h ([1]; female, genotype 2*17, Women (4)): 324 ± 39.9 ng/mL
concentration at 3 h ([1]; female, genotype 17*17, Women (5)): 68.3 ± 5.73 ng/mL
concentration at 3 h ([1]; male, genotype 1*1, Men (53)): 123 ± 20.8 ng/mL
concentration at 3 h ([1]; male, genotype 1*2, Men (20)): 290 ± 168 ng/mL
concentration at 3 h ([1]; male, genotype 1*17, Men (37)): 117 ± 16.1 ng/mL
concentration at 3 h ([1]; male, genotype 2*2, Men (1)): 1480 ng/mL
concentration at 3 h ([1]; male, genotype 2*17, Men (2)): 271 ± 119 ng/mL
concentration at 3 h ([1]; male, genotype 17*17, Men (5)): 73.7 ± 13.7 ng/mL
Antimode for HI of omeprazole (CYP2C19 [2]; Colombians): 0.63
Antimode for HI of omeprazole (CYP2C19 [2]; Indian): 14.4
Antimode for HI of omeprazole (CYP2C19 [2]; Koreans): 7.0
Mean HI, fold higher in CYP2C19*1*1 than CYP2C19*1*17 (CYP2C19 [2]; Ramsjö et al.): 1.1 fold
Mean HI, fold higher in CYP2C19*1*1 than CYP2C19*17*17 (CYP2C19 [2]; Ramsjö et al.): 3.2 fold
Median HI, fold higher in homozygous CYP2C19*1 than CYP2C19*1*17 carriers (CYP2C19 [2]; Sim et al.): 1.2 fold
Median HI, fold higher in homozygous CYP2C19*1 than homozygous CYP2C19*17 carriers (CYP2C19 [2]; Sim et al.): 2 fold
Antimode for HI of omeprazole (CYP2C19 [2]; Thai population): 7.0
Antimode for HI of omeprazole (CYP2C19 [2]; West Mexicans): 3.98
Omeprazole HI, women compared with men (CYP2C19 [3]; 60 women vs 120 men, P > 0.05): not statistically different
Median HI, fold higher in CYP2C19*1 homozygous than in CYP2C19*17 homozygous subjects (CYP2C19 [3]; *1*1 vs *17*17, P < 0.001): 2.17 fold
Median HI, fold higher in CYP2C19*1*17 than in CYP2C19*17*17 subjects (CYP2C19 [3]; *1*17 vs *17*17, P < 0.001): 1.97 fold
Mean HI ± SD (CYP2C19 [3]; genotype 1*1, Men (53)): 0.89 ± 0.30
Mean HI ± SD (CYP2C19 [3]; genotype 1*1, Women (22)): 0.78 ± 0.27
Mean HI ± SD (CYP2C19 [3]; genotype 1*2, Men (20)): 2.29 ± 1.19
Mean HI ± SD (CYP2C19 [3]; genotype 1*2, Women (13)): 2.24 ± 0.79
Mean HI ± SD (CYP2C19 [3]; genotype 1*17, Men (37)): 0.77 ± 0.32
Mean HI ± SD (CYP2C19 [3]; genotype 1*17, Women (15)): 0.72 ± 0.18
Mean HI ± SD (CYP2C19 [3]; genotype 2*2, Men (1)): 14.25
Mean HI ± SD (CYP2C19 [3]; genotype 2*2, Women (3)): 13.37 ± 3.80
Mean HI ± SD (CYP2C19 [3]; genotype 2*17, Men (2)): 2.05 ± 0.67
Mean HI ± SD (CYP2C19 [3]; genotype 2*17, Women (4)): 1.97 ± 0.62
Mean HI ± SD (CYP2C19 [3]; genotype 17*17, Men (5)): 0.36 ± 0.04
Mean HI ± SD (CYP2C19 [3]; genotype 17*17, Women (5)): 0.34 ± 0.08
Median hydroxylation index (CYP2C19 [3]; men (120)): 0.86
Median hydroxylation index (CYP2C19 [3]; women (60)): 0.84
Median hydroxylation index (HI) (CYP2C19 [4]; CYP2C19 *1*1, 3 h after 20 mg omeprazole orally): 0.78
Median hydroxylation index (HI) (CYP2C19 [4]; CYP2C19 *1*17, 3 h after 20 mg omeprazole orally): 0.71
Successful treatment response ([5]; EM genotype): 43%
Successful treatment response ([5]; HetEM genotype): 95%
